Laboratory results taken from patent US11702402B2, “Small molecules that block proteasome-associated ubiquitin receptor RPN13 function and uses thereof” (DANA-FARBER CANCER INSTITUTE, INC., priority 2018, dated 2023).

Legend:
RPN13 = RPN13 (Homo sapiens, UniProt Q16186); experiment: RPN13 AlphaScreen (Rpn13 / biotinylated polyUb recognition); assay type: binding; details: RA190 as positive control
Method: Assays were performed with minimal modifications from the manufacturer's protocol (PerkinElmer, USA). All reagents were diluted in 50 mM HEPES, 150 mM NaCl, 0.1% w/v BSA, 0.01% w/v Tween20, pH 7.5, and allowed to equilibrate to room temperature prior to addition to plates. After addition of Alpha beads to master solutions, all subsequent steps were performed under low light conditions. A 2× solution of components with final concentrations of RPN13 at 670 nM, Ni-coated Acceptor Bead at 20 μg/ml, and 5 nM biotinylated-poly-Ub K48-linked chains (UCB-230, BostonBiochem, USA) was added in 10 μL to 384-well plates (AlphaPlate-384, PerkinElmer, USA). Plates were spun down at 150×g, and 100 nL of compound in DMSO from stock plates were added by pin transfer using a Janus Workstation (PerkinElmer, USA). The streptavidin-coated donor beads (20 μg/ml final) were added, as with previous the solution, in a 2×, 10 μL volume. Following this addition, plates were sealed with foil to prevent light exposure and evaporation. The plates were spun down again at 150 g. Plates were incubated at room temperature for 1 hour, and then read on an Envision 2104 (PerkinElmer, USA), using the manufacturer's protocol.
Several experiments were performed to confirm the specificity of WL40. […] It was then examined whether the bivalent molecule, WL40, can bind to Rpn13. […]

[1] = biological target: Recombinant 20S proteasome (Homo sapiens, UniProt P28072+P28074+Q99436); experiment: Recombinant 20S proteasome activity assay; assay type: biochemical; details: purified recombinant 20S proteasome; 30 minutes
Method: MM.1S cells, which were treated with DMSO control, bortezomib, or WL40 at indicated concentration for 3 hours; protein lysates were analyzed for different proteasome activities (CT-L, chymotrypsin-like; T-L, trypsin-like; C-L, caspase-like). FIG. 20B is a bar graph showing percent proteasome activity after normalization with DMSO control (mean±SD; n=3). Recombinant 20S proteasome was incubated with DMSO, bortezomib, or WL40 for 30 minutes, followed by assessment of the above-noted proteasome activities. FIG. 20C MM.1S cells were pretreated with exemplary proteasome inhibitor MG132 (10 μM) for 1 hour, followed by addition of WL40 (400 nM) for 8 hours. […] Total protein lysates were subjected to immunoblots for Rpn13 and α-tubulin. […] FIG. 20E ANBL6.BR cells were treated with WL40 (400 nM) or RA190 (500 nM) for 16 hours; protein lysates were subjected to immunoblot analysis using anti-Rpn13 or anti-β-actin Abs.
To eliminate the potential impact of WL40 on proteasome function, the effect of WL40 on proteasome activities was assessed.

[2] = test system: PARP, caspase-3, caspase-7, caspase-8, caspase-9; experiment: PARP/caspase immunoblot and caspase enzymatic activity; assay type: cell-based, Human
Method: FIGS. 22A to 22F show the mechanisms of WL40-induced MM cell death. […] MM.1S cells were treated with DMSO control or WL40 (200 nM) for 16 hours, and then analyzed for apoptosis using Annexin V/PI double staining assay (mean±SD; n=3; p<0.001). FIG. 22B is an immunoblot of MM.1S and ANBL6.BR cells, which were treated with DMSO control or WL40 (200 nM for MM.1S; 1 μM for ANBL6.BR) for 16 hours; protein lysates were then subjected to the immunoblotting using antibodies against poly ADP ribose polymerase (PARP), caspase-3, caspase-7, caspase-8, caspase-9, or β-actin. FL, full length; CF, cleaved fragment. FIG. 22C is a bar graph measuring enzymatic activity. MM.1S cells were treated with DMSO control or WL40 (200 nM) for 12 hours, followed by the measurement of caspase-3, caspase-8, or caspase-9 enzymatic activity (mean±SD; n=3; p<0.0001). FIG. 22D is an immunoblot of MM.1S and ANBL6.BR cells, which were treated with DMSO control or WL40 (200 nM for MM.1S; 1 μM for ANBL6.BR) for 16 hours; protein lysates were then subjected to the immunoblotting using specific antibodies against Cyclin-B1, Cell Division Cycle 25C (CDC25C), Cell Division Cycle 2 (CDCl2), or β-actin. […]

Sequence of RPN13 (Q16186 whole entry): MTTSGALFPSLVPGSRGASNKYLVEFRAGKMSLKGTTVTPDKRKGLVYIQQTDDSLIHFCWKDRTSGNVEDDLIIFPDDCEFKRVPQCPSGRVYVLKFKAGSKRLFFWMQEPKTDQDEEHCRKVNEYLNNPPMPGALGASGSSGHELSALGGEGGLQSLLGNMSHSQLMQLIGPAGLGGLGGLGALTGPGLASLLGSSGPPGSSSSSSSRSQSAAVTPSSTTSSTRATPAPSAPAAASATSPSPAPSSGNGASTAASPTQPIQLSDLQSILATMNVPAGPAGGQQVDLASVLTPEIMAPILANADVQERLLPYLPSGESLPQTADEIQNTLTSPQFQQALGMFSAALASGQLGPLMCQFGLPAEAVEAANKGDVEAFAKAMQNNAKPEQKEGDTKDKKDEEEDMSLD

SMILES: O=C1CCC(N2C(=O)c3cccc(NCCOCCOCCOCCC(=O)N[C@@H](Cc4ccccc4)C(=O)N4C/C(=C\c5ccc(Cl)c(Cl)c5)C(=O)/C(=C/c5ccc(Cl)c(Cl)c5)C4)c3C2=O)C(=O)N1 (stereo partly shown) [WL40]
- Rpn13 binding (RPN13): binds to Rpn13
- 20S proteasomal activities (chymotrypsin-like, trypsin-like, caspase-like) [1]: does not inhibit 20S proteasomal activities
- PARP cleavage (immunoblot) ([2]; 200 nM for MM.1S, 1 μM for ANBL6.BR, 16 hours): proteolytic cleavage of Poly (ADP) ribose polymerase (PARP)
- caspase activation ([2]; MM.1S 200 nM, immunoblot 16 hours, enzymatic activity 12 hours): activation of caspase-3, caspase-7, caspase-8 and caspase-9
